Read-outs that look alike come from different tables or passages of the source.
What was measured:
[1] = Plasma free fraction (fu) and unbound Cmax (Cmax,u); type: in vitro ADME, human; conditions: unbound plasma Cmax
[2] = in vivo; cited from earlier work
human hepatocytes = conditions: cited from earlier work
[3] = system: THLE or HepG2 cells, isolated mitochondria, BSEP; conditions: cited from earlier work
PHH = conditions: cited from earlier work
hLiMTs [4] = conditions: cited from earlier work
PHH spheroids = conditions: cited from earlier work
[5] = system: HepG2 C3A spheroid, BSEP, Glu/Gal in HepG2 cells, bioactivation; conditions: cited from earlier work
[6] = plasma free fraction; cited from earlier work
[7] = in vivo; cited from earlier work; remark: listed apart in the source
[8] = system: isolated mouse liver mitochondria; conditions: In vitro Assay; ref Porceddu 2012; cited from earlier work
hLiMTs [9] = experiment: Combined HCI (HCS) and cellular ATP 3D assay in hLiMTs
HepaRG spheroids = experiment: Combined HCI (HCS) and cellular ATP 3D assay in HepaRG spheroids; conditions: for AC50 / minimal effective concentration: Homo sapiens
[10] = Microtissue model structural based (HCI), combined HCS and ATP, MEC < 25 × Cmax.tot cut-off

Human plasma Cmax,u [1]: 1 nM | hLiMTs <25x Avg Cmax ATP (hLiMTs [9]; hLiMTs, ATP endpoint, cut-off <25x Avg Cmax): -ve | hLiMTs <100x Avg Cmaxu ATP (hLiMTs [9]; hLiMTs, ATP endpoint, cut-off <100x Avg Cmaxu): -ve | hLiMTs <25x Avg Cmax HCS (hLiMTs [9]; hLiMTs, HCS endpoints, cut-off <25x Avg Cmax): -ve | hLiMTs <100x Avg Cmaxu HCS (hLiMTs [9]; hLiMTs, HCS endpoints, cut-off <100x Avg Cmaxu): -ve | hLiMTs <25x Avg Cmax All (hLiMTs [9]; hLiMTs, all endpoints (ATP and HCS), cut-off <25x Avg Cmax): -ve | hLiMTs Cmax max All (hLiMTs [9]; hLiMTs, all endpoints, Cmax max used): -ve | hLiMTs Cmax min All (hLiMTs [9]; hLiMTs, all endpoints, Cmax min used): -ve | hLiMTs <10 uM All (hLiMTs [9]; hLiMTs, all endpoints, cut-off <10 uM): +ve (<10 uM) | hLiMTs <100x Avg Cmaxu All (hLiMTs [9]; hLiMTs, all endpoints, cut-off <100x Avg Cmaxu): -ve | HepaRG <25x Avg Cmax ATP (HepaRG spheroids; HepaRG, ATP endpoint, cut-off <25x Avg Cmax): -ve | HepaRG <100x Avg Cmaxu ATP (HepaRG spheroids; HepaRG, ATP endpoint, cut-off <100x Avg Cmaxu): -ve | HepaRG <25x Avg Cmax HCS (HepaRG spheroids; HepaRG, HCS endpoints, cut-off <25x Avg Cmax): -ve | HepaRG <100x Avg Cmaxu HCS (HepaRG spheroids; HepaRG, HCS endpoints, cut-off <100x Avg Cmaxu): -ve | HepaRG <25x Avg Cmax All (HepaRG spheroids; HepaRG, all endpoints (ATP and HCS), cut-off <25x Avg Cmax): -ve | HepaRG Cmax max All (HepaRG spheroids; HepaRG, all endpoints, Cmax max used): -ve | HepaRG Cmax min All (HepaRG spheroids; HepaRG, all endpoints, Cmax min used): -ve | HepaRG <10 uM All (HepaRG spheroids; HepaRG, all endpoints, cut-off <10 uM): -ve | HepaRG <100x Avg Cmaxu All (HepaRG spheroids; HepaRG, all endpoints, cut-off <100x Avg Cmaxu): -ve
Structure (SMILES): CCN(CC)CC#CCOC(=O)C(O)(c1ccccc1)C1CCCCC1 (stereo not shown) [oxybutynin]
DILI +VE (5-8), DILI -VE (-4) [2]: -VE | DILI severity category (Chen et al. [2016]) [2]: No | DILI in vitro assay prediction, Xu (2008) (human hepatocytes): -VE | Structural based (HCI) (human hepatocytes): -VE | Rule of Two hybrid HRM Score ≥8, Aleo (2019) [3]: -VE | PHH ATP <100uM (PHH): -VE | PHH/100uM, Proctor (2017) (PHH): -VE | hLiMTs ATP <100uM (hLiMTs [4]): -VE | hLiMTs/100uM, Proctor (2017) (hLiMTs [4]): -VE | hLiMTs ATP <20 x Cmax (PHH spheroids; In vitro Assay, ref Vorrink 2018): -VE | DILI in vitro assay prediction, Vorrink (2018) (PHH spheroids): -VE | Bayesian Machine Learning DILI prediction, Williams (2019) [5]: -VE | fu [6]: 0.030 | Assigned DILI category [7]: 1 | In vivo DILI [7]: -VE | in vitro data EC2<=1x Cmax [8]: -VE | AC50 (hLiMTs [9]; Homo sapiens, read-out: HCS endpoint AC50): 6.06 µM | minimal effective concentration (hLiMTs [9]; Homo sapiens, read-out: HCS endpoint MEC): 2.11 µM | DILI prediction hLiMTs (HCS-MEC) (hLiMTs [9]; [10]): -VE | AC50 (HepaRG spheroids; HepaRG, read-out: ATP endpoint AC50): 28.5 µM | minimal effective concentration (HepaRG spheroids; HepaRG, read-out: ATP endpoint MEC): 16.1 µM | AC50 (HepaRG spheroids; HepaRG, read-out: HCS endpoint AC50): 64.5 µM | minimal effective concentration (HepaRG spheroids; HepaRG, read-out: HCS endpoint MEC): 10.3 µM | DILI prediction HepaRG spheroids (HCS-MEC) (HepaRG spheroids; [10]): -VE
